According to patent US10081641B2, “Pesticidally active heterocyclic derivatives with sulphur containing substituents” (Syngenta Participations AG, priority 2014, dated 2018):
Where two headings read alike, the source gives them in different places.

How the values were obtained:
Format in all cases: in vivo
[1] = test system: Spodoptera littoralis (Egyptian Cotton Leaf Worm); assay: Example B1: Spodoptera littoralis, sprayed cotton leaf discs; conditions: foliar, 72 h, read-out: control (at least one of mortality, anti-feedant effect, growth inhibition)
Method: Example B1: Spodoptera littoralis (Egyptian Cotton Leaf Worm)
Cotton leaf discs were placed on agar in 24-well microtiter plates and sprayed with aqueous test solutions prepared from 10′000 ppm DMSO stock solutions. After drying, the leaf discs were infested with five L1 larvae. The samples were assessed for mortality, anti-feedant effect, and growth inhibition in comparison to untreated samples 3 days after infestation. Control of Spodoptera littoralis by a test sample is when at least one of mortality, anti-feedant effect, and growth inhibition is higher than the untreated sample.

[2] = test system: Plutella xylostella (Diamond Back Moth); assay: Example B3: Plutella xylostella, artificial diet; conditions: 120 h, read-out: effect in at least one of the two categories (mortality or growth inhibition)
Method: Example B3: Plutella xylostella (Diamond Back Moth)
(§1) 24-well microtiter plates with artificial diet were treated with aqueous test solutions prepared from 10′000 ppm DMSO stock solutions by pipetting. After drying, the plates were infested with L2 larvae (10 to 15 per well). The samples were assessed for mortality and growth inhibition in comparison to untreated samples 5 days after infestation.

[3] = test system: Diabrotica Balteata (Corn Root Worm); assay: Example B4: Diabrotica balteata, sprayed maize sprouts; conditions: 96 h, application rate of 200 ppm, L2 larvae, 4 days after infestation, read-out: effect in at least one of the two categories (mortality or growth inhibition)
Method: Example B4: Diabrotica Balteata (Corn Root Worm)
as §1, with “Maize sprouts, placed on an agar layer in 24-well” for “24-well”, “plates” for “plates with artificial diet”, “spraying.” for “pipetting.”, “(6” for “(10”, “10” for “15”, “4” for “5”

[4] = test system: Myzus persicae (Green Peach Aphid); assay: Example B6: Myzus persicae, roots of pea seedlings in test solution; conditions: 144 h, test rate of 24 ppm, pea seedling roots in test solution, 6 days
Method: Example B6: Myzus persicae (Green Peach Aphid)
Roots of pea seedlings infested with an aphid population of mixed ages were placed directly in the aqueous test solutions prepared from 10′000 DMSO stock solutions. The samples were assessed for mortality 6 days after placing seedlings in test solutions.

[5] = test system: Myzus persicae (Green Peach Aphid); assay: Example B5: Myzus persicae, sprayed sunflower leaf discs; conditions: foliar, 144 h, application rate of 200 ppm, mixed ages, 6 days after infestation
Method: Example B5: Myzus persicae (Green Peach Aphid)
(§2) Sunflower leaf discs were placed on agar in a 24-well microtiter plate and sprayed with aqueous test solutions prepared from 10′000 ppm DMSO stock solutions. After drying, the leaf discs were infested with an aphid population of mixed ages. The samples were assessed for mortality 6 days after infestation.

[6] = test system: Bemisia tabaci (Cotton White Fly); assay: Example B7: Bemisia tabaci, sprayed cotton leaf discs; conditions: foliar, 144 h, application rate of 200 ppm, adult white flies, 6 days after incubation
Method: Example B7: Bemisia tabaci (Cotton White Fly)
Cotton leaf discs were placed on agar in 24-well microtiter plates and sprayed with aqueous test solutions prepared from 10′000 ppm DMSO stock solutions. After drying the leaf discs were infested with adult white flies. The samples were checked for mortality 6 days after incubation.

[7] = test system: Euschistus heros (Neotropical Brown Stink Bug); assay: Example B8: Euschistus heros, sprayed soybean leaf; conditions: 120 h, application rate of 200 ppm, N-2 nymphs, 5 days after infestation
Method: Example B8: Euschistus heros (Neotropical Brown Stink Bug)
Soybean leaf on agar in 24-well microtiter plates were sprayed with aqueous test solutions prepared from 10′000 ppm DMSO stock solutions. After drying the leaf were infested with N-2 nymphs. The samples were assessed for mortality 5 days after infestation.

[8] = test system: Spodoptera littoralis (Egyptian Cotton Leaf Worm); assay: Example B2: Spodoptera littoralis, systemic test via lettuce roots in agar; conditions: 144 h, test rate of 12.5 ppm, uptake via lettuce roots, 6 days after infestation, read-out: effect in at least one of the three categories (mortality, anti-feedancy, or growth inhibition)
Excerpt: Example B2: Spodoptera littoralis (Egyptian Cotton Leaf Worm)
Test compounds were applied by pipette from 10′000 ppm DMSO stock solutions into 24-well plates and mixed with agar. Lettuce seeds were placed on the agar and the multi well plate was closed by another plate which contains also agar. After 7 days the roots have absorbed the compound and the lettuce has grown into the lid plate. The lettuce leafs were now cut off into the lid plate. Spodoptera eggs were pipetted through a plastic stencil on a humid gel blotting paper and the plate closed with it. The samples were assessed for mortality, anti-feedant effect and growth inhibition in comparison to untreated samples 6 days after infestation.

[9] = test system: Tetranychus urticae (Two-Spotted Spider Mite); assay: Example B10: Tetranychus urticae, sprayed bean leaf discs; conditions: foliar, 192 h
Method: Example B10: Tetranychus urticae (Two-Spotted Spider Mite)
Bean leaf discs on agar in 24-well microtiter plates were sprayed with aqueous test solutions prepared from 10′000 ppm DMSO stock solutions. After drying the leaf discs were infested with a mite population of mixed ages. The samples were assessed for mortality on mixed population (mobile stages) 8 days after infestation.

[10] = test system: Frankliniella occidentalis (Western Flower Thrips); assay: Example B12: Frankliniella occidentalis, sprayed sunflower leaf discs; conditions: foliar, 168 h, application rate of 200 ppm, mixed ages, 7 days after infestation
Method: Example B12: Frankliniella occidentalis (Western Flower Thrips)
as §2, with “in” for “in a”, “plates” for “plate”, “[…]” for “10′000 ppm”, “drying” for “drying,”, “a Frankliniella” for “an aphid”, “7” for “6”

[11] = test system: Thrips tabaci (Onion Thrips); assay: Example B11: Thrips tabaci, sprayed sunflower leaf discs; conditions: foliar, 144 h, application rate of 200 ppm, mixed ages, 6 days after infestation
Method: Example B11: Thrips tabaci (Onion Thrips)
as §2, with “in” for “in a”, “plates” for “plate”, “drying” for “drying,”, “a thrips” for “an aphid”

[12] = application rate of 200 ppm, cotton leaf discs, L1 larvae, 3 days after infestation
[13] = application rate of 200 ppm, artificial diet, L2 larvae, 5 days after infestation

CCS(=O)(=O)c1cc(C#C[Si](C)(C)C)cnc1-c1nc2cc(C(F)(F)F)ncc2n1C [P1, 2-[5-ethylsulfonyl-6-[3-methyl-6-(trifluoromethyl)imidazo[4,5-c]pyridin-2-yl]-3-pyridyl]ethynyl-trimethyl-silane]
≥ 80%: percent control (mortality, anti-feedant effect or growth inhibition) at 200 ppm [1] | percent effect (mortality or growth inhibition) at 200 ppm [2]

C#Cc1cnc(-c2nc3cc(C(F)(F)F)ncc3n2C)c(S(=O)(=O)CC)c1 [P2, 2-(3-ethylsulfonyl-5-ethynyl-2-pyridyl)-3-methyl-6-(trifluoromethyl)imidazo[4,5-c]pyridine]
≥ 80%: percent control (mortality, anti-feedant effect or growth inhibition) at 200 ppm [1, 12] | percent effect (mortality or growth inhibition) at 200 ppm [2, 13]

C=Cc1cnc(-c2nc3cc(C(F)(F)F)ncc3n2C)c(S(=O)(=O)CC)c1 [P3, 2-(3-ethylsulfonyl-5-vinyl-2-pyridyl)-3-methyl-6-(trifluoromethyl)imidazo[4,5-c]pyridine]
≥ 80%: percent control (mortality, anti-feedant effect or growth inhibition) at 200 ppm [1, 12] | percent effect (mortality or growth inhibition) at 200 ppm [3] | percent effect (mortality or growth inhibition) at 200 ppm [2, 13] | mortality at 24 ppm [4] | mortality at 200 ppm [5]

CCS(=O)(=O)c1cc(C#Cc2ccc(Cl)cc2)cnc1-c1nc2cc(C(F)(F)F)ncc2n1C [P4]
≥ 80%: percent control (mortality, anti-feedant effect or growth inhibition) at 200 ppm [1, 12] | percent effect (mortality or growth inhibition) at 200 ppm [3] | percent effect (mortality or growth inhibition) at 200 ppm [2, 13] | mortality at 200 ppm [5]

CCS(=O)(=O)c1cc(/C=C/C2CCCCC2)cnc1-c1nc2cc(C(F)(F)F)ncc2n1C [P5]
≥ 80%: mortality at 200 ppm [6] | percent effect (mortality or growth inhibition) at 200 ppm [3] | percent effect (mortality or growth inhibition) at 200 ppm [2, 13]

C/C=C/c1cnc(-c2nc3cc(C(F)(F)F)ncc3n2C)c(S(=O)(=O)CC)c1 [P6]
≥ 80%: mortality at 200 ppm [7] | percent control (mortality, anti-feedant effect or growth inhibition) at 200 ppm [1, 12] | percent effect (mortality or growth inhibition) at 200 ppm [3] | percent control (mortality, anti-feedancy or growth inhibition) at 12.5 ppm [8] | percent effect (mortality or growth inhibition) at 200 ppm [2, 13] | mortality at 200 ppm [5]

CCS(=O)(=O)c1cc(C2CC2)cnc1-c1nc2cc(C(F)(F)F)ncc2n1C [P7, 2-(5-cyclopropyl-3-ethylsulfonyl-2-pyridyl)-3-methyl-6-(trifluoromethyl)imidazo[4,5-c]pyridine]
≥ 80%: mortality at 200 ppm [7] | percent control (mortality, anti-feedant effect or growth inhibition) at 200 ppm [1, 12] | percent effect (mortality or growth inhibition) at 200 ppm [3] | percent control (mortality, anti-feedancy or growth inhibition) at 12.5 ppm [8] | percent effect (mortality or growth inhibition) at 200 ppm [2, 13] | mortality at 24 ppm [4] | mortality at 200 ppm [5]

CCS(=O)(=O)c1cc(C#Cc2ccc(Cl)cc2)ccc1-c1nc2cc(C(F)(F)F)ncc2n1C [P8]
≥ 80%: mortality at 200 ppm [6] | mortality at 200 ppm [7] | percent control (mortality, anti-feedant effect or growth inhibition) at 200 ppm [1, 12] | percent effect (mortality or growth inhibition) at 200 ppm [3] | percent control (mortality, anti-feedancy or growth inhibition) at 12.5 ppm [8] | percent effect (mortality or growth inhibition) at 200 ppm [2, 13]

CCS(=O)(=O)c1cc(C#CC(F)(F)F)ccc1-c1nc2cc(C(F)(F)F)ncc2n1C [P9]
≥ 80%: mortality at 200 ppm [9] | percent effect (mortality or growth inhibition) at 200 ppm [3]

CCS(=O)(=O)c1cc(/C=C/c2ccc(C(F)(F)F)cc2)ccc1-c1nc2cc(C(F)(F)F)ncc2n1C [P10]
≥ 80%: mortality at 200 ppm [7] | percent control (mortality, anti-feedant effect or growth inhibition) at 200 ppm [1, 12] | percent effect (mortality or growth inhibition) at 200 ppm [3] | percent effect (mortality or growth inhibition) at 200 ppm [2, 13]

CCS(=O)(=O)c1cc(C=C(C)C)cnc1-c1nc2cc(C(F)(F)F)ncc2n1C [P11]
≥ 80%: mortality at 200 ppm [7] | percent control (mortality, anti-feedant effect or growth inhibition) at 200 ppm [1, 12] | percent effect (mortality or growth inhibition) at 200 ppm [3] | percent effect (mortality or growth inhibition) at 200 ppm [2, 13] | mortality at 200 ppm [5]

CCS(=O)(=O)c1cc(C2=CCC(C)(C)CC2)cnc1-c1nc2cc(C(F)(F)F)ncc2n1C [P12]
≥ 80%: mortality at 200 ppm [6] | mortality at 200 ppm [7] | percent effect (mortality or growth inhibition) at 200 ppm [2, 13] | mortality at 200 ppm [5]

C=Cc1ccc(-c2nc3cc(C(F)(F)F)ncc3n2C)c(S(=O)(=O)CC)c1 [P13]
≥ 80%: percent control (mortality, anti-feedant effect or growth inhibition) at 200 ppm [1, 12] | percent effect (mortality or growth inhibition) at 200 ppm [3] | percent control (mortality, anti-feedancy or growth inhibition) at 12.5 ppm [8] | percent effect (mortality or growth inhibition) at 200 ppm [2, 13]

C=C(c1ccc(-c2nc3cc(C(F)(F)F)ncc3n2C)c(S(=O)(=O)CC)c1)C(F)(F)F [P14]
≥ 80%: percent control (mortality, anti-feedant effect or growth inhibition) at 200 ppm [1, 12] | percent effect (mortality or growth inhibition) at 200 ppm [3] | percent effect (mortality or growth inhibition) at 200 ppm [2, 13]

CCS(=O)(=O)c1cc(C2(C#N)CC2)ccc1-c1nc2cc(C(F)(F)F)ncc2n1C [P15, 1-[3-ethylsulfonyl-4-[3-methyl-6-(trifluoromethyl)imidazo[4,5-c]pyridin-2-yl]phenyl]cyclopropanecarbonitrile]
≥ 80%: mortality at 200 ppm [6] | mortality at 200 ppm [9] | mortality at 200 ppm [7] | percent control (mortality, anti-feedant effect or growth inhibition) at 200 ppm [1, 12] | percent effect (mortality or growth inhibition) at 200 ppm [3] | percent control (mortality, anti-feedancy or growth inhibition) at 12.5 ppm [8] | percent effect (mortality or growth inhibition) at 200 ppm [2, 13] | mortality at 200 ppm [10] | mortality at 24 ppm [4] | mortality at 200 ppm [5]

CCS(=O)(=O)c1cc(C2(C#N)CC2)cnc1-c1nc2cc(C(F)(F)F)ncc2n1C [P16]
≥ 80%: mortality at 200 ppm [6] | mortality at 200 ppm [11] | mortality at 200 ppm [7] | percent control (mortality, anti-feedant effect or growth inhibition) at 200 ppm [1, 12] | percent effect (mortality or growth inhibition) at 200 ppm [3] | percent control (mortality, anti-feedancy or growth inhibition) at 12.5 ppm [8] | percent effect (mortality or growth inhibition) at 200 ppm [2, 13] | mortality at 200 ppm [10] | mortality at 24 ppm [4] | mortality at 200 ppm [5]

C=C(c1cnc(-c2nc3cc(C(F)(F)F)ncc3n2C)c(S(=O)(=O)CC)c1)C(F)(F)F [P17, 2-[3-ethylsulfonyl-5-[1-(trifluoromethyl)vinyl]-2-pyridyl]-3-methyl-6-(trifluoromethyl)imidazo[4,5-c]pyridine]
≥ 80%: percent effect (mortality or growth inhibition) at 200 ppm [3]
